Experimental data as given in patent US9975888B2, “Aryl linked imidazole and triazole derivatives and methods of use thereof for improving the pharmacokinetics of a drug” (MERCK SHARP & DOHME CORP., priority 2013, dated 2018).

How the values were obtained:
Assay type in all cases: biochemical
[1] = molecular target: T1, CYP3A4 (Homo sapiens, UniProt P08684); experiment: Cocktail assay for CYPs, midazolam 1′-hydroxylation (CYP3A4), human liver microsomes; design: 0.1 mg/mL protein human liver microsomes (BD Gentest); tissue BD Gentest; host or cells: human liver microsomes; conditions: 2 μM midazolam, 0.1 mg/mL human liver microsomes, 10 min at 37° C.; read-out: CYP IC50 (nM) 3A4 (MDZ)
Experimental: (§1) Determination of IC50 in a Cocktail Assay for CYPs 1A2, 2C9, 2C19, 2D6 and 3A4:
(§2) This assay was performed in a standard 96-well plate design. IC50 values were calculated from the percent inhibition observed for each test compound at 6 concentrations (for example, 0.0032, 0.016, 0.08, 0.4, 2 and 10 μM). The incubation substrate mix contains 10 μM phenacetin (1A2), 5 μM diclofenac (2C9), 30 μM mephenytoin (2C19), 5 μM dextromethorphan (2D6) and 2 μM midazolam (3A4), 0.1 mg/mL protein human liver microsomes (BD Gentest), 1 mM NAPDH, 3.3 mM MgCl2 and 100 mM potassium phosphate buffer (pH 7.4). The production of the metabolite of each probe substrate was determined after incubation for 10 min at 37° C. Quantitation of the metabolite peak area ratio against an internal standard (tolbutamide) was determined by LC/MS/MS analysis following acetonitrile treatment of the incubations.
(§3) Samples were analyzed in the MRM mode with a SCIEX API-4000 mass spectrometer (Applied Biosystems, Foster City, Calif.), with a Shimadzu LC-20 AD pump (Shimadzu corporation, Kyoto, JP) and a CTC PAL autosampler (Agilent Technologies, Switzerland). A Phenomenex, Luna, 5 nm, 100 A, 2.00×30 mm HPLC column was used for the separation. The mobile phases were: (A) 0.1% formic acid in water and (B) 0.1% formic acid in acetonitrile. The binary gradient was as follows.
(§4) The peak area ratio of the analyte to the internal standard was used to quantify the metabolite. The values of peak area ratios in the presence of test compound were compared to those of maximum or minimum controls and were expressed as % inhibition by interpolating between the maximum and minimum peak area ratios. Incubations with no inhibitor were defined as the maxima. The following equation was used to calculate the % inhibition: [1−[(X−Low control)/(High control−Low control)]]*100 For the IC50 calculation, SigmaPlot was used to plot the mean % inhibition versus the test compound concentrations and for non-linear regression analysis of the data. Depending on the range of data points defining the inhibition curve, the data may have been fit to the 4-parameter logistic equation.
Target sequence in this assay (P08684 whole entry): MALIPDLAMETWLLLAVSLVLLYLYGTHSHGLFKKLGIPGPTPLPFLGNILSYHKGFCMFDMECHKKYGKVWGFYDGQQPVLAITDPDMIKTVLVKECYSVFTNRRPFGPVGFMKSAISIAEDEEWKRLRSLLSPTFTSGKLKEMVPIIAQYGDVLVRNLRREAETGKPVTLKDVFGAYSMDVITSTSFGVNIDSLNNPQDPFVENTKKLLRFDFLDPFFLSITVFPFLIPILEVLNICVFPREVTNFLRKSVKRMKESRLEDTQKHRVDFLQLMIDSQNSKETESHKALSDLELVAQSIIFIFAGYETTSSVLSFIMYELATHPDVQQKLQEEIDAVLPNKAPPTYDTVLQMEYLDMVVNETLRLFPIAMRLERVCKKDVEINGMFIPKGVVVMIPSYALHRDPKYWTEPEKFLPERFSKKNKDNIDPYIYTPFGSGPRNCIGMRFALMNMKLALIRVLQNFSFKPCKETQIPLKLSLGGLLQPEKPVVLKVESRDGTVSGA

[2] = molecular target: T2, CYP2D6 (Homo sapiens, UniProt P10635); experiment: Cocktail assay for CYPs, dextromethorphan O-demethylation (CYP2D6), human liver microsomes; conditions: 5 μM dextromethorphan, 0.1 mg/mL human liver microsomes, 10 min at 37° C.; read-out: CYP IC50 (nM) 2D6
T2 construct: 0.1 mg/mL protein human liver microsomes (BD Gentest); tissue BD Gentest; host or cells: human liver microsomes
Experimental: as §1, §2, §3, §4

[3] = molecular target: T3, CYP2C9 (Homo sapiens, UniProt P11712); experiment: Cocktail assay for CYPs, diclofenac 4′-hydroxylation (CYP2C9), human liver microsomes; conditions: 5 μM diclofenac, 0.1 mg/mL human liver microsomes, 10 min at 37° C.; read-out: CYP IC50 (nM) 2C9
T3 construct: 0.1 mg/mL protein human liver microsomes (BD Gentest); tissue BD Gentest; host or cells: human liver microsomes
Experimental: as §1
as §2, with “IC50 values were calculated from the percent inhibition observed for each test compound at 6 concentrations (for example, 0.0032, 0.016, 0.08, 0.4, 2 and 10 μM).” left out
as §3, §4

[4] = molecular target: T4, CYP2C19 (Homo sapiens, UniProt P33261); experiment: Cocktail assay for CYPs, mephenytoin 4′-hydroxylation (CYP2C19), human liver microsomes; conditions: 30 μM mephenytoin, 0.1 mg/mL human liver microsomes, 10 min at 37° C.; read-out: CYP IC50 (nM) 2C19
T4 construct: 0.1 mg/mL protein human liver microsomes (BD Gentest); tissue BD Gentest; host or cells: human liver microsomes
Experimental: as §1
as §2, with “IC50 values were calculated from the percent inhibition observed for each test compound at 6 concentrations (for example, 0.0032, 0.016, 0.08, 0.4, 2 and 10 μM).” left out
as §3, §4

[5] = molecular target: T1, CYP3A4; experiment: IC50 vs CYP3A by inhibition of lopinavir metabolism in human liver microsomes; design: 0.01 mg/mL protein human liver microsomes (BD Gentest); tissue BD Gentest; host or cells: human liver microsomes; conditions: 1.5 μM lopinavir, 0.01 mg/mL human liver microsomes, 8 min at 37° C.; read-out: CYP IC50 (nM) 3A4 (LPV)
Experimental: Determination of IC50 vs CYP3A by Measurement of Inhibition of Lopinavir Metabolism
This assay was performed in a standard 96-well plate design. IC50 values were calculated from the percent inhibition observed for each test compound at 6 concentrations (for example, 0.098, 0.391, 1.56, 6.25, 25 and 100 nM). The incubation substrate mix contains 1.5 μM lopinavir, 0.01 mg/mL protein human liver microsomes (BD Gentest), 1 mM NAPDH, 3.3 mM MgCl2 and 100 mM potassium phosphate buffer (pH 7.4). The production of the sum of three hydroxylated metabolites (M2: 6-hydroxy lopinavir, M3: 4-hydroxy lopinavir, M4: 4-hydroxy lopinavir (epimer of M3), Kumar et al., 1999) was determined after incubation for 8 min at 37° C. Quantitation of the metabolite peak area ratio against an internal standard (tolbutamide) was determined by LC/MS/MS analysis following acetonitrile treatment of the incubations.
as §3, with “μm,” for “nm,”
Target sequence in this assay (P08684 2-503): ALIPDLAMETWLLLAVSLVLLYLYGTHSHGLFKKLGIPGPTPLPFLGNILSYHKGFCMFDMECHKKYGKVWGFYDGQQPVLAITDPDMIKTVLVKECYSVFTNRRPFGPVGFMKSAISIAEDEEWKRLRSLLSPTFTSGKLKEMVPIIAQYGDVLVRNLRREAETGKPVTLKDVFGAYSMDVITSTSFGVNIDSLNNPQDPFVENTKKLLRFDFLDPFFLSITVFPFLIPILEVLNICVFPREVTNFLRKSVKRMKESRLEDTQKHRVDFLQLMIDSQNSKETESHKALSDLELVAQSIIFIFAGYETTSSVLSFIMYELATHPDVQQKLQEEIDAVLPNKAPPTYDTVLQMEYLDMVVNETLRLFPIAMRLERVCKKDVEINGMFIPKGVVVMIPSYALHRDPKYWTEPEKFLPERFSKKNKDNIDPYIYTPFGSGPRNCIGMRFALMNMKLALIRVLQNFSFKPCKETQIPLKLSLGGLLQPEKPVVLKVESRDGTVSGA
The peak area ratio of the analyte to the internal standard was used to quantify the metabolite. The values of peak area ratios in the presence of test compound were compared to those of maximum or minimum controls and were expressed as % inhibition by interpolating between the maximum and minimum peak area ratios. Incubations with no inhibitor were defined as the maxima and with 5 μM ketoconazole were defined as the minima.
The following equation was used to calculate the % inhibition: [1−[(X−Low control)/(High control−Low control)]]*100
For the IC50 calculation, SigmaPlot was used to plot the mean % inhibition versus the test compound concentrations and for non-linear regression analysis of the data. Depending on the range of data points defining the inhibition curve, the data may have been fit to the 4-parameter logistic equation.

[6] = molecular target: T5, CYP1A2 (Homo sapiens, UniProt P05177); experiment: Cocktail assay for CYPs, phenacetin O-deethylation (CYP1A2), human liver microsomes; conditions: 10 μM phenacetin, 0.1 mg/mL human liver microsomes, 10 min at 37° C.; read-out: CYP IC50 (nM) 1A2
T5 construct: 0.1 mg/mL protein human liver microsomes (BD Gentest); tissue BD Gentest; host or cells: human liver microsomes
T5 sequence (P05177 1-516): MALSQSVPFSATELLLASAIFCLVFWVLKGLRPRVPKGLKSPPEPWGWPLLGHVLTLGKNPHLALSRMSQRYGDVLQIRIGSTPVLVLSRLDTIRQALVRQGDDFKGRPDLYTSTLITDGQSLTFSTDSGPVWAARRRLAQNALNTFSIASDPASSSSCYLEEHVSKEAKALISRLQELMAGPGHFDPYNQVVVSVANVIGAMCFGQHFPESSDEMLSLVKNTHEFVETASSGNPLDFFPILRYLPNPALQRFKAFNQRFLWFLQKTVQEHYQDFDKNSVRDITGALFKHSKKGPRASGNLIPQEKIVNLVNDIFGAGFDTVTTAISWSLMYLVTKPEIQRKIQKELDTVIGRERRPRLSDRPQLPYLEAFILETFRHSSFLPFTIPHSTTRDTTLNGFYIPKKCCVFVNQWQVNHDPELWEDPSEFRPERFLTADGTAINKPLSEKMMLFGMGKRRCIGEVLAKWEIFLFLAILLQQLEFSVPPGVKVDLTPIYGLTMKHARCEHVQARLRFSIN
Experimental: as §1, §2, §3, §4

T2 sequence (P10635 whole entry): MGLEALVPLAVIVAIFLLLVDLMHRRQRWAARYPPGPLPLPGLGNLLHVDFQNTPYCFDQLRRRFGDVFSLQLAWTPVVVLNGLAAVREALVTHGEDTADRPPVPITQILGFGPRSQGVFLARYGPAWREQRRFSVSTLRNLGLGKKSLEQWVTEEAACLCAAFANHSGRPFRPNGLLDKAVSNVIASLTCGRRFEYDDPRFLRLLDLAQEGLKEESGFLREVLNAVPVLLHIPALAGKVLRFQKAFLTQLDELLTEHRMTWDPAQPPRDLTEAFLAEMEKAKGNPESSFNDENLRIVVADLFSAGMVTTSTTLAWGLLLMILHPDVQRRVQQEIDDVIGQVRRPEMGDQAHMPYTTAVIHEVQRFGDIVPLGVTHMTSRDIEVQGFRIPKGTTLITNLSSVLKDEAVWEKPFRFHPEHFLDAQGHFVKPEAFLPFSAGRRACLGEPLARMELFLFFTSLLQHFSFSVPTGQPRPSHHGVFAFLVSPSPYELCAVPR
T4 sequence (P33261 whole entry): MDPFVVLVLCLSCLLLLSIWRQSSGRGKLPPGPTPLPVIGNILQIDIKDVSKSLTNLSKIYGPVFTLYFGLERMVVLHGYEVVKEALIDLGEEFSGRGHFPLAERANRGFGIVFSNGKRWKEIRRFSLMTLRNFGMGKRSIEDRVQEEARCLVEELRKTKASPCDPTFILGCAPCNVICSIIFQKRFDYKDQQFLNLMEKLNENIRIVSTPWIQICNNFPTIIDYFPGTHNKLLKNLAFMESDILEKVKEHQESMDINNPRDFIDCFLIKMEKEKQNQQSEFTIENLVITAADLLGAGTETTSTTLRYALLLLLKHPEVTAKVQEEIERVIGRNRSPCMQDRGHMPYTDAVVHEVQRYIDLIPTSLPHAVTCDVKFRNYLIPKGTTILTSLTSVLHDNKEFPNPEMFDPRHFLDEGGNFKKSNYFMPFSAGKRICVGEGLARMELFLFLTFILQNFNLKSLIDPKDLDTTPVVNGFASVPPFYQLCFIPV
T3 sequence (P11712 whole entry): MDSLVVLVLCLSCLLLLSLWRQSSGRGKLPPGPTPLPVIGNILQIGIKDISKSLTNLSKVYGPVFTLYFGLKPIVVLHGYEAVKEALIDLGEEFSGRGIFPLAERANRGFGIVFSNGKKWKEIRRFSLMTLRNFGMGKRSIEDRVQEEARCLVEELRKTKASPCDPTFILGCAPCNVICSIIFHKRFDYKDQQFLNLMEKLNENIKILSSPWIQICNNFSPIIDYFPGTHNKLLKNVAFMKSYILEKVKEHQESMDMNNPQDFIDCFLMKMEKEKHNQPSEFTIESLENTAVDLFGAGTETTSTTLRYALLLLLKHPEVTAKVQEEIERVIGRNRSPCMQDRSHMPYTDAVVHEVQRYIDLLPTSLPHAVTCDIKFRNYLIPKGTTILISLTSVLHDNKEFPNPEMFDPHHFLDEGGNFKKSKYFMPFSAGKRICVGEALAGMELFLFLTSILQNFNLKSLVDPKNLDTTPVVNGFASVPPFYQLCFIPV

SMILES	IC50 [1]	IC50 [2]	IC50 [3]	IC50 [4]	IC50 [5]	IC50 [6]
O=C(NCc1ccc(S(=O)(=O)N2CCCC2c2cccc(-c3cncn3CCc3ccc(F)cc3)c2)s1)c1ccccc1 (single isomer, unassigned) [Compound 55a, (R or S)-N-((5-((2-(3-(1-(4-fluorophenethyl)-1H-imidazol-5-yl)phenyl)pyrrolidin-1-yl)sulfonyl)thiophen-2-yl)methyl) benzamide]	6.63 nM	139 nM	61.6 nM	219 nM	0.84 nM	1080 nM
O=C(c1ccc(N2CCOCC2)nc1)N1CCCC1c1cccc(-c2cncn2CCc2ccc(F)cc2)c1 (stereo not drawn) [Compound 52, (2-(3-(1-(4-fluorophenethyl)-1H-imidazol-5-yl)phenyl)pyrrolidin-1-yl) (6-morpholino-pyridin-3-yl) methanone]	5.76 nM	2460 nM	1970 nM	249 nM	6 nM	6500 nM
O=S(=O)(NCc1ccccc1-c1cncn1CCc1ccc(F)cc1)c1cnc(N2CCN3C[C@H](O)C[C@H]3C2)s1 [Compound 19, N-(2-(1-(4-fluorophenethyl)-1H-imidazol-5-yl)benzyl)-2-((7R,8aS)-7-hydroxyhexahydropyrrolo[1,2-a]pyrazin-2 (1H)-yl)thiazole-5-sulfonamide]	9.5 nM	3200 nM	6270 nM	> 10000 nM	16.4 nM	> 10000 nM
CC(C)OC(=O)N1CCCC1c1ccccc1-c1cncn1CCc1ccc(F)cc1 (single isomer, unassigned) [Compound 39a, (R or S)-isopropyl 2-(2-(1-(4-fluorophenethyl)-1H-imidazol-5-yl)phenyl) pyrrolidine-1-carboxylate]	7.6 nM	9040 nM	2200 nM	2730 nM	4.3 nM	3840 nM
CC(=O)Nc1ncc(S(=O)(=O)NCc2ccccc2-c2cncn2CCc2ccc(F)cc2)s1 [Compound 18, N-(5-(N-(2-(1-(4-fluorophenethyl)-1H-imidazol-5-yl)benzyl)sulfamoyl)thiazol-2-yl) acetamide]	15.8 nM	7180 nM	> 10000 nM	2930 nM	18.6 nM	> 10000 nM
O=C(C1CC1)N1CCCC1c1cccc(-c2cncn2CCc2ccc(F)cc2)c1 (stereo not drawn) [Compound 47, cyclopropyl(2-(3-(1-(4-fluorophenethyl)-1H-imidazol-5-yl)phenyl)pyrrolidin-1-yl)methanone]	14.9 nM	2500 nM	2330 nM	1010 nM	16.7 nM	2080 nM
O=C(C1CCOCC1)N1CCCC1c1ccccc1-c1cncn1CCc1ccc(F)cc1 (stereo not drawn) [Compound 41, (2-(2-(1-(4-fluorophenethyl)-1H-imidazol-5-yl)phenyl)pyrrolidin-1-yl)(tetrahydro-2H-pyran-4-yl)methanone]	10.7 nM	> 10000 nM	> 10000 nM	> 10000 nM	11.1 nM	> 10000 nM
O=C(C1CCOCC1)N1CCCC1c1cccc(-c2cncn2CCc2ccc(F)cc2)c1 (single isomer, unassigned) [Compound 49b, (R or S)-(2-(3-(1-(4-fluorophenethyl)-1H-imidazol-5-yl)phenyl)pyrrolidin-1-yl)(tetrahydro-2H-pyran-4-yl)methanone]	58.6 nM	> 10000 nM	> 10000 nM	6910 nM	> 100 nM	> 10000 nM
O=C(c1cccnc1)N1CCCC1c1ccccc1-c1cncn1CCc1ccc(F)cc1 (single isomer, unassigned) [Compound 42a, (R or S)-(2-(2-(1-(4-fluorophenethyl)-1H-imidazol-5-yl)phenyl)pyrrolidin-1-yl) (pyridin-3-yl) methanone]	64.4 nM	1830 nM	> 10000 nM	> 10000 nM	≥ 100 nM	> 10000 nM
CN1CCN(c2ncc(S(=O)(=O)N3CCc4c(ncnc4-c4cncn4CCc4ccc(F)cc4)C3)s2)CC1 [Compound 67, 5-((4-(1-(4-fluorophenethyl)-1H-imidazol-5-yl)-5,6-dihydropyrido[3,4-d]pyrimidin-7(8H)-yl)sulfonyl)-2-(4-methylpiperazin-1-yl)thiazole]	123 nM	6510 nM	> 10000 nM	> 10000 nM	> 100 nM	> 10000 nM
